# Source: patent publication US8361802B2, “Fluorescent ozone sensor” (University of Pittsburgh—Of the Commonwealth System of …, priority 2009, dated 2013)
# Tests used:
# [1] = tested on: Human bronchial epithelial cells (BEAS-2B); assay: Live-cell imaging of human bronchial epithelial cells; format: cell-based; settings: human bronchial epithelial cells
# Method: Human bronchial epithelial cells (BEAS-2B) (American Type Culture Collectin) were grown in LHC-9 medium (Invitrogen) on glass-bottomed Petri dishes (MatTek) precoated with 0.01 mg ml^−1 of human fibronectin (Invitrogen), 0.029 mg ml^−1 Vitrogen 100 (Cohesion) and 0.01 mg ml^−1 bovine serum albumin (Invitrogen) in LHC-9 medium. Immediately prior to imaging, cells were rinsed with Hank's balanced salt solution, which contained calcium and magnesium, and placed inside a temperature-controlled, airtight environmental chamber and maintained at 37° C. and 5% CO2. Images were obtained using a Nikon TE2000E-PFS (Perfect focus system) microscope equipped with a […] oil-immersion objective (Nikon, CFI PlanFluor, NA 1.3) and a fluorescien isothiocyanate longpass filter set (Chroma), a Q-Imaging SRV CCD camera (Q-imaging) and MetaMorph software (Molecular Devices). The motorized XYZ stage used was made by ASA (Eugege). Baseline images were collected before the addition of compound 8 and time-lapsed images obtained at 30 second intervals after the addition of compound 8 (250 nM). Once stage baseline had been achieved, multiple washes were carried out and the media replaced. The cells were then exposed to ozone (˜2.1 ppm) and monitored every 30 seconds for 15 minutes. Ozone was generated from medical grade oxygen (Valley Gas) via a model V1-0 ultraviolet ozonator (OREC) and analyzed with a Dasibi (Glendale) direct-reading instrument. Ozone concentrations were maintained by adjusting both the intensity of the ultraviolet light and the flow rate of oxygen. For each experiment, images were collected from six stages, with a minimum of five cells per position (a minimum of 30 cells per […]).
# In another embodiment of the invention, human bronchial epitelial cells were incubated with compound 4 to determine ozone's role in cell biology. […] Based on studies why compound 4 and structurally related compounds are not fluorescent, it is believed that the hydroxymethyl group 4 may have been oxidized to give a more electron-withdrawing group, possible a carboxyl or aldehyde group, and so emit a strong fluorescence signal. To circumvent such an oxidation event, compound 8 was prepared specific for ozone. […] Once a steady baseline signal had been established and maintained for five minutes, ozone gas was generated within the airtight environmental chamber that housed the cell-culture dishes, and fluorescent signals were monitored using live-cell microscopy for approximately 15 minutes.
# FIGS. 16A-H are photographs of live-cell imaging of human bronchial epithelial cells in the presence of ozone using compound 8. The left-hand panels (FIGS. A-E) are pseudocolour images that indicate the changes in emission intensity over time, and the right-hand panels show differential interference contrast images of the bronchial epithelial cells. FIG. 16A is before the addition of compound 8 (0 seconds). FIG. 16B illustrates the cell at 107 seconds that is a steady state intensity reached with compound 8 at 250 nM. FIG. 16C illustrates the cell at 326 seconds when ozone flow is started. FIG. 16D illustrates the cell at 536 seconds with the emission intensity increasing. FIG. 16E illustrates the cell at 675 seconds when emission maximum is reached. FIG. 16F illustrates the cell at 820 seconds when the cell starts to die. FIG. 16G illustrates the cell at 969 seconds where the cell emission continues to fall. FIG. 16H illustrates the cell at 1148 seconds when the ozone flow is stopped.
# [2] = Time-dependence of the conversion of compound 4 to compound 7; settings: 37° C.
# Method: Time-dependence of the conversion of compound 4 to compound 7 in buffer. Solution A ([compound 4]final=12.5 μM) was added to a mixture of MeOH/pH 7 buffer ([PO4^3−]=5 mM) (5:95) (4.0 mL), and the sample was exposed to ozone (˜5 μM) at 24° C. followed by incubation at 37° C. Aliquots of the reaction mixture were taken out at various times for fluorescence measurement (FIG. S6). The conversion of compound 4 to compound 7 requires 60 minutes for completion (presumably the β-elimination is the rate determining step because the formation and fragmentation of molozonides are extremely rapid), but 10-15 minutes is sufficient to observe fluorescence signal.
# FIG. 7 illustrates time-dependence of the conversion of compound 4 to compound 7 in cell culture media at 37° C. […]. Solution A ([compound 4]final=12.5 μM) was added to a mixture of 10% FBS in RPMI-1640 cell culture media/pH 7 buffer ([PO4^3−]=5 mM) (1:3) (4.0 mL), and the sample was exposed to ozone (˜5 μM) at 24° C. followed by incubation at 37° C. Aliquots of the reaction mixture were taken out at various times for fluorescence measurement (FIG. 8). The conversion of compound 4 to compound 7 requires 15-20 minutes for completion, but <5 minutes is sufficient to observe fluorescence signal. Although the exact mechanism of this enhancement is not known, catalysis of a β-elimination by action of bovine serum albumin has been previously reported.
# [3] = Air pollutant specificity; settings: acid 250 μM, metal 100 nM, 30 minutes at 37° C.
# Method: FIG. 3B illustrates Ozone specificity against other air pollutants: Sample A=no additive, Sample B=ozone, Sample C=HNO3, Sample D=H2SO4, Sample E=Pb, Sample F=Pd, Sample G=Pt. [Acid]=250 μM. [Metal]=100 nM. The acid samples were incubated in 5:95 MeOH/pure water for 30 minutes at 37° C. The metal samples were incubated in 5:95 MeOH/pH 7 buffer for 30 minutes at 37° C.
# A number of other pollutants were screened to ensure that ozone was selectively detected. Nitrogen dioxide and sulfur dioxide convert to their corresponding acids in aqueous solution so nitric acid and sulfuric acid were screened. Lead, palladium and platinum, which are known pollutants emitted from automobiles, were also screened. […]
# Acids: HNO3 or H2SO4 (10 μL of 0.1 M solution; [acid]final=250 μM) and solution A (5.0 μL, [compound 4]final=12.5 μM) were added to a mixture of MeOH/pure water solution (5:95) (4.0 mL), and the samples were incubated at 37° C. for 30 minutes before fluorescence measurement. […]
# Metals: Pb, Pd or Pt solution (40 μL of 10 μM solution; [Metal]final=100 nM) and solution A (5.0 μL, [compound 4]final=12.5 μM) were added to a mixture of MeOH/pH 7 buffer ([PO4^3−]=5 mM) (5:95) (4.0 mL), and the samples were incubated at 37° C. for 30 minutes before fluorescence measurement. […]
# [4] = 10% FBS in RPMI-1640 cell culture media/pH 7 buffer (1:3)
# [5] = MeOH/pH 7 buffer (5:95), ozone ~5 μM
structure (smiles),measurement,setting,value
C=CCCOc1cc2oc3cc(=O)c(Cl)cc-3c(-c3ccccc3CO)c2cc1Cl [compound 4],cell permeability,[1],cell permeable
same,fluorescence inside the cells in the absence of external ozone,[1]; no external ozone,converted to a fluorescent compound inside the cells
same,time required for completion of conversion of compound 4 to compound 7,[2]; [4],15 to 20 min
same,time sufficient to observe fluorescence signal,[2]; [4],< 5 min
same,time required for completion of conversion of compound 4 to compound 7,[2]; [5],60 min
same,time sufficient to observe fluorescence signal,[2]; [5],10 to 15 min
same,fluorescent signal with other air pollutants (species C-G),[3],none of these species C-G produced a fluorescent signal
